Source: US11083717B2, “Compositions and methods for drug sensitization of parasites” (The Texas A&M University System, priority 2015, dated 2021)
In brackets after ≈: the same amount, converted by molar mass. Where two headings read alike, the source gives them in different places.

What was measured:
[1] = HCLint in vitro intrinsic clearance, human (HLM); assay type: in vitro ADME
[2] = tested on: Cryptosporidium parvum (CP); assay: Cell culture model of Cryptosporidium parvum infection in HCT-8 cells, real-time qRT-PCR; assay type: cell-based; conditions: Cryptosporidium parvum
Procedure, shortened: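 HCT-8 monolayers were infected with C. parvum Iowa oocysts (1.5×10^4/well) for 3 h, then compounds were added after medium exchange and cells were incubated 41 h more (44 h total, 37 °C). Parasite Cp18S rRNA was measured by one-step SYBR qRT-PCR of lysates, normalized to host Hs18S, and % inhibition at the stated µM was derived from a standard curve.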

[3] = MCLint in vitro intrinsic clearance, mouse (MLM); assay type: in vitro ADME
[4] = Kinetic solubility; assay type: physicochemical
[5] = tested on: S. cerevisiae; assay: in vitro; conditions: Saccharomyces cerevisiae
[6] = in vitro
[7] = tested on: human fibroblast; assay: in vitro; conditions: human
[8] = Plasma protein binding; assay type: in vitro ADME; conditions: mouse, mice, read-out: PPB (converted)
[9] = tested on: Cryptosporidium parvum; conditions: for effectiveness in the same type of test (IL-12 knockout mouse model): in vivo
Method: The anticryptosporidial activity of the in vitro inhibitors was assessed in the IL-12 knockout mouse model that resembles the acute human disease (Ehigiator H N, Romagnoli P, Borgelt K, Fernandez M, McNair N, Secor W E, Mead J R. 2005. Mucosal cytokine and antigen-specific responses to Cryptosporidium parvum in IL-12p40 KO mice. Parasite Immunol. 27: 17-28; Campbell L D, Stewart J N, Mead J R. 2002. Susceptibility to Cryptosporidium parvum infections in cytokine- and chemokine-receptor knockout mice. J. Parasitol. 88:1014-1016). The protocol was approved by the Institutional Animal Care and Use Committees of Emory University, the AtlantaVAMedical Center, and Brandeis University. Mice (6 to 10 per group) were inoculated with 1,000 purified CP oocysts (Iowa isolate, from cattle). Treatment by gavage began 4 h postinfection with either vehicle (5% dimethyl sulfoxide (DMSO) in canola oil), 50-100 mg/kg compound, or 2,000 mg/kg paromomycin. Compounds were given for 7 days, and mice were sacrificed on day 8 (peak infection). Parasite load was quantified by fluorescence-activated cell sorting (FACS) assays for the presence of the oocysts in the feces at days 0, 4, and 7. Fecal pellets from individual mice were routinely collected daily and homogenized in adjusted volumes of 2.5% potassium dichromate. Samples were processed individually. Aliquots (200 ul) of vortexed samples were processed over microscale sucrose gradients as previously described (Arrowood M J, Hurd M R, Mead J R. 1995. A new method for evaluating experimental cryptosporidial parasite loads using immunofluorescent flowcytometry. J. Parasitol. 81:404-409). The oocyst-containing fraction was collected, washed, and treated with monoclonal antibody (OW5O-FITC) for 20 min. Samples were adjusted to 600 ul, and a portion (100 ul) was assayed with a 102-s sampling interval using logical gating of forward/side scatter and OW5O-FITC fluorescence signal on a Becton, Dickinson FACScan flow cytometer. Flow cytometry data were evaluated by analysis of variance (KaleidaGraph (Synergy Software, Reading Pa.); Microsoft Excel (Microsoft Corporation, Redmond, Wash.)).
NZ-366 (50 mg/kg) and NZ-369 (100 mg/kg) were administered via gavage in a single daily dose to IL-12 knockout mice that were infected with 1,000 CP oocysts. Additional control groups included those treated with single daily doses of vehicle, and paromomycin (Prm) (2,000 mg/kg), by oral gavage.

[10] = molecular target: Human ether-a-go-go-related gene (hERG) (Homo sapiens, UniProt Q12809); assay: hERG test (potential cardiotoxicity); assay type: biochemical; conditions: read-out: hERG (Abbvie)
Chain of Human ether-a-go-go-related gene (hERG) (Q12809 whole entry): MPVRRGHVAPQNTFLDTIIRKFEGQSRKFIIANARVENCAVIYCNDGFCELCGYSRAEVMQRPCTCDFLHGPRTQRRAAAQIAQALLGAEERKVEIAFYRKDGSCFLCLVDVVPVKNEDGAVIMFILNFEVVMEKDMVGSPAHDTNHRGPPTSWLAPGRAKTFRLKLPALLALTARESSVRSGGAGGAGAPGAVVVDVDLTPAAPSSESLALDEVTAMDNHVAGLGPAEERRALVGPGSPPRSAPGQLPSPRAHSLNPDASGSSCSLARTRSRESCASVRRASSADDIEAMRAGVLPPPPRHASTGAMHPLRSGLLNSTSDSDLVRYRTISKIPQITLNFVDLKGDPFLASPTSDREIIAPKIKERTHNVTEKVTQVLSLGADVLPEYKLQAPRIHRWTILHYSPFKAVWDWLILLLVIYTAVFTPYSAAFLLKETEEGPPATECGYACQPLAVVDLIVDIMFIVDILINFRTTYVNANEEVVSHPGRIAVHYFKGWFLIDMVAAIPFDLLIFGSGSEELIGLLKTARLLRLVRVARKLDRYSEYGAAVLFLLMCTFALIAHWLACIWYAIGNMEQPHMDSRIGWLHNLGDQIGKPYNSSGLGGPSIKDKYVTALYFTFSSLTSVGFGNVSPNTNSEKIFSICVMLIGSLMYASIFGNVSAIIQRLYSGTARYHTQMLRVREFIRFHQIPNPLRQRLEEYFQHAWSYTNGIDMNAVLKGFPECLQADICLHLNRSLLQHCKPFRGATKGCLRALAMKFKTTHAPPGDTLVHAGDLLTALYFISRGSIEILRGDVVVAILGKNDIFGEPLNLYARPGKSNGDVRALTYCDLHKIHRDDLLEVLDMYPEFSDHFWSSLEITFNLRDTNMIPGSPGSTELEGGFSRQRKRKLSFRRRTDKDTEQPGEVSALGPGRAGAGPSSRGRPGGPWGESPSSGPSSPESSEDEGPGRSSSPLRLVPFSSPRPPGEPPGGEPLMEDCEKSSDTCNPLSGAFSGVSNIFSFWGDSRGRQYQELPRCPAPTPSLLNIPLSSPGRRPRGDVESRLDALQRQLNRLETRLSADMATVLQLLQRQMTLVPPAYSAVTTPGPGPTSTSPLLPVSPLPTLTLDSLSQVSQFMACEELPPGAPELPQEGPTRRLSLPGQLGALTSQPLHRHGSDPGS

[11] = 44 h, CP in HCT-8 cells, 44 h infection, 50% reduction of parasite growth vs control, NA: not active, read-out: MIC50

SMILES	HCLint (mL/min/g liver), HLM [1]	MIC50 [2, 11]	MIC50 ([2]; read-out: MIC50 (nM) (CP))	MCLint (mL/min/g liver), MLM [3]	Kinetic Sol. [4]	concentrations at which not toxic, S. cerevisiae cytotoxicity testing [5]	IC50 ([6]; Saccharomyces cerevisiae)	IC50 ([6]; human)	concentrations at which not toxic, human fibroblast cytotoxicity testing [7]	fraction unbound [8]	effectiveness in the same type of test (IL-12 knockout mouse model) [9]	IC50 [10]	inhibition at 0.25 µM ([2]; HCT-8, @0.25 uM)	Mouse Model (Mead) DPI7 ([9]; @50 mg/kg, day 7 post infection)	inhibition at 31 µM ([2]; HCT-8, @31 uM, read-out: % (inhibition of CP) printed in the MIC50 (nM) (CP) column)
CC(C)NC(=O)C(C)c1ccc(Oc2nc3ccc(Cl)cc3s2)cc1 (centres unmarked) [NZ-327, 2-{4-[(6-chloro-1,3-benzothiazol-2-yl)oxy]phenyl}-N-(propan-2-yl)propanamide]	HLM = 1.3 mL/min/g liver	7 to 22 nM (≈ 0.00262 to 0.00825 µg/mL)	7 to 22 nM (≈ 0.00262 to 0.00825 µg/mL)	MLM = 3.7 mL/min/g liver	33 µM	≥ 100 µM	> 100 µM	> 100 µM	≥ 100 µM	0.016	–	–	–	–	–
CC(C(=O)N1CCNCC1)c1ccc(Oc2nc3ccc(Cl)cc3s2)cc1 (centres unmarked) [NZ-364, 2-{4-[(6-chloro-1,3-benzothiazol-2-yl)oxy]phenyl}-1-(piperazin-1-yl)propan-1-one]	–	120 nM (≈ 0.0482 µg/mL)	–	–	–	≥ 100 µM	–	–	≥ 100 µM	–	effective	–	–	–	–
CC(C(=O)N1CCOCC1)c1ccc(Oc2nc3ccc(Cl)cc3s2)cc1 (centres unmarked) [NZ-365, 2-{4-[(6-chloro-1,3-benzothiazol-2-yl)oxy]phenyl}-1-(morpholin-4-yl)propan-1-one]	HLM = 4.8 mL/min/g liver	25 nM (≈ 0.0101 µg/mL)	25 nM (≈ 0.0101 µg/mL)	MLM = 10 mL/min/g liver	28 µM	50 to 100 µM	> 100 µM	> 100 µM	≥ 100 µM	–	–	12 µM	–	–	–
CC(C(=O)NCC(O)CO)c1ccc(Oc2nc3ccc(Cl)cc3s2)cc1 (centres unmarked) [NZ-372, 2-{4-[(6-chloro-1,3-benzothiazol-2-yl)oxy]phenyl}-N-(2,3-dihydroxypropyl)propanamide]	–	85 nM (≈ 0.0346 µg/mL)	–	–	–	≥ 100 µM	–	–	–	–	effective	–	–	–	–
CN1CCN(C(=O)Nc2ccc(Oc3nc4ccc(Cl)cc4s3)cc2)CC1 [NZ-475, N-{4-[(6-chloro-1,3-benzothiazol-2-yl)oxy]phenyl}-4-methylpiperazine-1-carboxamide]	–	60 nM (≈ 0.0242 µg/mL)	–	–	–	≥ 100 µM	–	–	≥ 100 µM	–	effective	–	–	–	–
O=C(Cc1ccc(Oc2nc3ccc(F)cc3s2)cc1)N1CCCC1 [NZ-490, 2-{4-[(6-fluoro-1,3-benzothiazol-2-yl)oxy]phenyl}-1-(pyrrolidin-1-yl)ethan-1-one]	–	~250 nM (≈ 0.0891 µg/mL)	–	–	–	≥ 100 µM	–	–	≥ 100 µM	–	–	–	60%	–	–
NC(=O)Cc1ccc(Oc2nc3cc(F)c(F)cc3s2)cc1F [NZ-496, 2-{4-[(5,6-difluoro-1,3-benzothiazol-2-yl)oxy]-2-fluorophenyl}acetamide]	–	250 to 1000 nM (≈ 0.0846 to 0.338 µg/mL)	–	–	–	≥ 100 µM	–	–	≥ 100 µM	–	–	–	–	–	–
NC(=O)Cc1ccc(Oc2nc3ccc(Cl)cc3s2)cc1F [NZ-500, 2-{4-[(6-chloro-1,3-benzothiazol-2-yl)oxy]-2-fluorophenyl}acetamide]	–	~250 nM (≈ 0.0842 µg/mL)	–	–	–	≥ 100 µM	–	–	≥ 100 µM	–	–	–	–	–	–
NC(=O)Cc1ccc(Oc2nc3ccc(Cl)cc3s2)cc1 [NZ-505, 2-{4-[(6-chloro-1,3-benzothiazol-2-yl)oxy]phenyl}acetamide]	–	~250 nM (≈ 0.0797 µg/mL)	–	–	–	≥ 100 µM	–	–	≥ 100 µM	–	–	–	–	–	–
CC(C(=O)NCCN(C)C)c1ccc(Oc2nc3ccc(Cl)cc3s2)cc1 (centres unmarked) [NZ-516, 2-{4-[(6-chloro-1,3-benzothiazol-2-yl)oxy]phenyl}-N-[2-(dimethylamino)ethyl]propanamide]	HLM = 0.54 mL/min/g liver	16 nM (≈ 0.00646 µg/mL)	16 nM (≈ 0.00646 µg/mL)	MLM = 4.1 mL/min/g liver	100 µM	≥ 100 µM	> 100 µM	5.6 µM	≥ 100 µM	–	effective	2.7 µM	–	DPI7 = 94%	–
CC(C(=O)NC1CC1)c1ccc(Oc2nc3ccc(Cl)cc3s2)cc1 (centres unmarked) [NZ-538, 2-{4-[(6-chloro-1,3-benzothiazol-2-yl)oxy]phenyl}-N-cyclopropylpropanamide]	HLM = 0.7 mL/min/g liver	54 nM (≈ 0.0201 µg/mL)	54 nM (≈ 0.0201 µg/mL)	MLM = 3.9 mL/min/g liver	–	–	> 100 µM	> 100 µM	–	–	–	7.3 µM	–	–	–
CC(C(=O)NC1CCC1)c1ccc(Oc2nc3ccc(Cl)cc3s2)cc1 (centres unmarked) [NZ-539, 2-{4-[(6-chloro-1,3-benzothiazol-2-yl)oxy]phenyl}-N-cyclobutylpropanamide]	HLM = 1.8 mL/min/g liver	57 nM (≈ 0.0221 µg/mL)	57 nM (≈ 0.0221 µg/mL)	MLM = 4.4 mL/min/g liver	–	–	> 100 µM	> 100 µM	–	–	–	> 30 µM	–	–	–
COCCNC(=O)C(C)c1ccc(Oc2nc3ccc(Cl)cc3s2)cc1 (centres unmarked) [NZ-541, 2-{4-[(6-chloro-1,3-benzothiazol-2-yl)oxy]phenyl]-N-(2-methoxyethyl)propanamide]	HLM = 2.0 mL/min/g liver	81 nM (≈ 0.0317 µg/mL)	81 nM (≈ 0.0317 µg/mL)	MLM = 6.3 mL/min/g liver	–	–	> 100 µM	> 100 µM	–	–	–	27 µM	–	–	–
CC(C(=O)NC1COC1)c1ccc(Oc2nc3ccc(Cl)cc3s2)cc1 (centres unmarked) [NZ-543, 2-{4-[(6-chloro-1,3-benzothiazol-2-yl)oxy]phenyl}-N-(oxetan-3-yl)propanamide]	HLM = 1.2 mL/min/g liver	45 nM (≈ 0.0175 µg/mL)	45 nM (≈ 0.0175 µg/mL)	MLM = 2 mL/min/g liver	–	–	> 100 µM	> 100 µM	–	–	–	24 µM	–	–	–
CC(C(=O)NC1CCOC1)c1ccc(Oc2nc3ccc(Cl)cc3s2)cc1 (centres unmarked) [NZ-544, 2-{4-[(6-chloro-1,3-benzothiazol-2-yl)oxy]phenyl}-N-(oxolan-3-yl)propanamide]	HLM = 2.6 mL/min/g liver	72 nM (≈ 0.029 µg/mL)	72 nM (≈ 0.029 µg/mL)	MLM = 3.3 mL/min/g liver	–	–	> 100 µM	> 100 µM	–	–	–	11 µM	–	–	–
CC(C(=O)N1CCS(=O)(=O)CC1)c1ccc(Oc2nc3ccc(Cl)cc3s2)cc1 (centres unmarked) [NZ-553, 4-(2-{4-[(6-chloro-1,3-benzothiazol-2-yl)oxy]phenyl}propanoyl)-1λ^6,4-thiomorpholine-1,1-dione]	HLM = 0.87 mL/min/g liver	2 nM (≈ 0.000902 µg/mL)	2 nM (≈ 0.000902 µg/mL)	MLM = 1.28 mL/min/g liver	100 µM	–	> 100 µM	40 µM	–	0.01	–	11 µM	–	–	–
CC(C(=O)NCCS(C)(=O)=O)c1ccc(Oc2nc3ccc(Cl)cc3s2)cc1 (centres unmarked) [NZ-578, 2-{4-[(6-chloro-1,3-benzothiazol-2-yl)oxy]phenyl}-N-(2-methanesulfonylethyl)propanamide]	–	18 nM (≈ 0.0079 µg/mL)	< 30 nM	–	–	–	–	> 100 µM	–	–	–	–	–	–	83%
